pIC50: −log10 of the molar value. Converted amounts (≈) assume the structure as drawn.
Tests used:
[1] = Ratio of drug concentration in spinal cord to plasma in CCI induced thermal hyperalgesia Sprague-Dawley rat model at 0.3 mg/kg, po measured at 5.75 hrs post dose; type: ADME, organism-based
[2] = Ratio of drug concentration in spinal cord to plasma in CCI induced thermal hyperalgesia Sprague-Dawley rat model at 0.1 mg/kg, po measured at 5.75 hrs post dose; type: ADME, organism-based
[3] = Tmax in dog at 3 mg/kg, po; type: ADME, organism-based, Canis lupus familiaris; settings: in vivo
[4] = Tmax in monkey at 3 mg/kg, po; type: ADME, organism-based, Macaca mulatta; settings: rhesus monkey, in vivo
[5] = molecular target: AP2-associated protein kinase 1 (Homo sapiens, UniProt Q2M2I8); test: Inhibition of […] in HEK293F cells assessed as reduction in phospho mu2 formation incubated for 3 hrs by Western blot analysis; type: cell-based
Cytochrome P450 3A4 [6] = molecular target: T1, Cytochrome P450 3A4 (Homo sapiens, UniProt P08684); test: Inhibition of CYP3A4 (unknown origin) using BFC as substrate; type: ADME
[7] = Metabolic stability in mouse liver microsomes assessed as CYP450-mediated metabolism by measuring parent compound remaining at 0.5 uM incubated for 10 mins in presence of NADPH by LC-MS/MS analysis; type: ADME; settings: read-out: Stability
[8] = Permeability of compound at pH 5.5 measured after 4 hrs by PAMPA assay; type: ADME; settings: read-out: permeability
[9] = Permeability across basolateral to apical side in human Caco-2 cells at 3 uM measured after 2 hrs by LC-MS/MS analysis; type: ADME, cell-based; settings: read-out: permeability
Rattus norvegicus [10] = test: Analgesic activity in streptozotocin induced diabetic peripheral neuropathic mechanical allodynia in overnight fasted Sprague-Dawley rat model assessed as reduction in pain response at 1 mg/kg, po measured after 5.5 hrs post treatment; type: functional; design: scale not given: the % may be the effect or the level left
[11] = Protein binding in cynomolgus monkey plasma assessed as unbound fraction at 10 uM incubated for 5 hrs by LC-MS/MS analysis; type: ADME, cell-free, Macaca fascicularis
[12] = Protein binding in dog plasma assessed as unbound fraction at 10 uM incubated for 5 hrs by LC-MS/MS analysis; type: ADME, cell-free, Canis lupus familiaris
[13] = Protein binding in mouse brain assessed as unbound fraction at 1 uM incubated for 4 hrs by LC-MS/MS analysis; type: ADME, tissue-based
[14] = Metabolic stability in mouse liver microsomes assessed as half life; type: ADME, Microsome
Cytochrome P450 2C19 = Cytochrome P450 2C19 (Homo sapiens, UniProt P33261); test: Inhibition of CYP2C19 (unknown origin); type: ADME
Cytochrome P450 3A4 [15] = molecular target: T1, Cytochrome P450 3A4; test: Time dependent inhibition of CYP3A4 (unknown origin) using BSF as substrate measured at 30 mins; type: ADME
[16] = molecular target: Solute carrier organic anion transporter family member 1B1 (Homo sapiens, UniProt Q9Y6L6); test: Inhibition of OATP1B1 (unknown origin)
[17] = molecular target: ATP-binding cassette sub-family C member 2 (Homo sapiens, UniProt Q92887); test: Inhibition of MRP2 (unknown origin)
[18] = molecular target: Solute carrier family 22 member 6 (Homo sapiens, UniProt Q4U2R8); test: Inhibition of OAT1 (unknown origin)
[19] = molecular target: Broad substrate specificity ATP-binding cassette transporter ABCG2 (Homo sapiens, UniProt Q9UNQ0); test: Inhibition of BCRP (unknown origin)
Homo sapiens = organism: Homo sapiens; test: Inhibition of sodium channel (unknown origin) at 10 uM at 4 Hz electrophysiological method relative to control
Rattus norvegicus [20] = test: Analgesic activity in CCI induced thermal hyperalgesia in Sprague-Dawley rat assessed as reversal of thermal hyperalgesia by measuring reduction in paw withdrawal latency at 0.3 mg/kg, po measured after 5.5 hrs by Hargreaves test relative to control; type: functional; design: scale not given: the % may be the effect or the level left
Rattus norvegicus [21] = test: Analgesic activity in streptozotocin induced diabetic peripheral neuropathic mechanical allodynia in overnight fasted Sprague-Dawley rat model assessed as reduction in pain response at 0.3 mg/kg, po measured after 5.5 hrs post treatment; type: functional; design: scale not given: the % may be the effect or the level left
Rattus norvegicus [22] = test: Analgesic activity in CCI induced thermal hyperalgesia Sprague-Dawley rat model assessed as efficacy at 0.1 mg/kg, po measured at 5.75 hrs post dose; type: functional
[23] = Ratio of drug concentration in spinal cord to plasma of overnight fasted Sprague-Dawley rat model with streptozotocin induced diabetic peripheral neuropathic mechanical allodynia at 0.1 mg/kg, po measured at 5.5 hrs post dose; type: ADME, organism-based
[24] = Ratio of drug concentration in spinal cord to plasma of overnight fasted Sprague-Dawley rat model with streptozotocin induced diabetic peripheral neuropathic mechanical allodynia at 0.3 mg/kg, po measured at 5.5 hrs post dose; type: ADME, organism-based
Rattus norvegicus [25] = test: Analgesic activity in streptozotocin induced diabetic peripheral neuropathic mechanical allodynia in overnight fasted Sprague-Dawley rat model assessed as efficacy at 0.1 mg/kg, po measured at 5.5 hrs post dose; type: functional
Rattus norvegicus [26] = test: Analgesic activity in streptozotocin induced diabetic peripheral neuropathic mechanical allodynia in overnight fasted Sprague-Dawley rat model assessed as efficacy at 0.3 mg/kg, po measured at 5.5 hrs post dose; type: functional
Rattus norvegicus [27] = test: Analgesic activity in streptozotocin induced diabetic peripheral neuropathic mechanical allodynia in overnight fasted Sprague-Dawley rat model assessed as efficacy at 3 mg/kg, po measured at 5.5 hrs post dose; type: functional
[28] = Drug concentration in naive Sprague-Dawley rat spinal cord at 10 mg/kg, po measured at 5.25 hrs post dose; type: ADME, organism-based; settings: read-out: Ct
[29] = Drug concentration in naive Sprague-Dawley rat spinal cord at 30 mg/kg, po measured at 5.25 hrs post dose; type: ADME, organism-based; settings: read-out: Ct
[30] = Ratio of drug concentration in spinal cord to plasma in Sprague-Dawley rat at 10 mg/kg, po measured at 5.25 hrs post dose; type: ADME, organism-based
[31] = AUC (infinity) in rat at 2 mg/kg, iv; type: ADME, organism-based; design: time infinity, route intravenous, dose 2 mg/kg; settings: in vivo
[32] = AUC (infinity) in rat at 3 mg/kg, po; type: ADME, organism-based; design: route oral, time infinity, dose 3 mg/kg; settings: in vivo
[33] = AUC (infinity) in dog at 2 mg/kg, iv; type: ADME, organism-based, Canis lupus familiaris; design: time infinity, route intravenous, dose 2 mg/kg; settings: in vivo
[34] = AUC (infinity) in monkey at 3 mg/kg, po; type: ADME, organism-based, Macaca mulatta; design: route oral, time infinity, dose 3 mg/kg; settings: rhesus monkey, in vivo
[35] = Apparent elimination half life in mouse at 2 mg/kg, iv; type: ADME, organism-based; settings: in vivo, read-out: betat1/2(app) (converted)
[36] = Apparent elimination half life in monkey at 2 mg/kg, iv; type: ADME, organism-based, Macaca mulatta; settings: rhesus monkey, in vivo, read-out: betat1/2(app) (converted)
[37] = MRT in mouse at 2 mg/kg, iv; type: ADME, organism-based; settings: in vivo
[38] = MRT in rat at 2 mg/kg, iv; type: ADME, organism-based; settings: in vivo
[39] = Clearance in rat at 2 mg/kg, iv; type: ADME, organism-based; settings: in vivo
[40] = Clearance in dog at 2 mg/kg, iv; type: ADME, organism-based, Canis lupus familiaris; settings: in vivo
[41] = Volume of distribution at steady state in mouse at 2 mg/kg, iv; type: ADME, organism-based; settings: in vivo, read-out: Vdss
[42] = Volume of distribution at steady state in dog at 2 mg/kg, iv; type: ADME, organism-based, Canis lupus familiaris; settings: in vivo, read-out: Vdss
[43] = molecular target: BMP-2-inducible protein kinase (Homo sapiens, UniProt Q9NSY1); test: Inhibition of BIKE (unknown origin)
[44] = Solubility of the compound in FaSSIF; type: physicochemical
[45] = Solubility of the compound in propylene glycol; type: physicochemical
Cytochrome P450 3A4 [46] = molecular target: T1, Cytochrome P450 3A4; test: Time dependent inhibition of CYP3A4 (unknown origin) using TST as substrate measured at 5 mins; type: ADME

T1 sequence (P08684 whole entry): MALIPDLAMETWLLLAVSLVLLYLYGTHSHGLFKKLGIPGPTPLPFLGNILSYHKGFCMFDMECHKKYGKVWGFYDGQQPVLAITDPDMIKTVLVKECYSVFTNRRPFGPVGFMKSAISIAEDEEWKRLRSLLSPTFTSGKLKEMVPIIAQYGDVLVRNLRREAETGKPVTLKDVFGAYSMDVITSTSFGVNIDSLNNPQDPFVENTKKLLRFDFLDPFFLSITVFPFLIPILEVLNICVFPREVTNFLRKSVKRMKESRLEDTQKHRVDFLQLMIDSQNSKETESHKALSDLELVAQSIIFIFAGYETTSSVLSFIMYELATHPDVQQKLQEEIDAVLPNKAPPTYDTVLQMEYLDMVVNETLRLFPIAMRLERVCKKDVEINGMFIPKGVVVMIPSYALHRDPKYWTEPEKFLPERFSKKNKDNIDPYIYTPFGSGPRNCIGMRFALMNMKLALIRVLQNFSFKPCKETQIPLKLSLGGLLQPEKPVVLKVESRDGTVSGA
Chain of Solute carrier family 22 member 6 (Q4U2R8 whole entry): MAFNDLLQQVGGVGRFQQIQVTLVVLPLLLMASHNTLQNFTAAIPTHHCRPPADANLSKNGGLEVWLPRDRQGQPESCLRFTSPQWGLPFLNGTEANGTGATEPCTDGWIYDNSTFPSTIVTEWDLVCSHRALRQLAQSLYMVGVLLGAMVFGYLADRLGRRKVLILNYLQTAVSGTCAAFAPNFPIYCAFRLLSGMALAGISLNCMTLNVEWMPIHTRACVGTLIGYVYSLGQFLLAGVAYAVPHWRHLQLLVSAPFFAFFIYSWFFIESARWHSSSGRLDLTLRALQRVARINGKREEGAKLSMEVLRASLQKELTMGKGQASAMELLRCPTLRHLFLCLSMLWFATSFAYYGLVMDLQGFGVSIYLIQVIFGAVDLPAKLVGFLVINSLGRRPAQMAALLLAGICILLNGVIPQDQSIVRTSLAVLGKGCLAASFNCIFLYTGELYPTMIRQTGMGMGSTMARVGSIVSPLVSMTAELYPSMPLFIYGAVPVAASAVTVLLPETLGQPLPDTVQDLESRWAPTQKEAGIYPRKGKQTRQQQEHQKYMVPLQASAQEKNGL
Chain of Cytochrome P450 2C19 (P33261 whole entry): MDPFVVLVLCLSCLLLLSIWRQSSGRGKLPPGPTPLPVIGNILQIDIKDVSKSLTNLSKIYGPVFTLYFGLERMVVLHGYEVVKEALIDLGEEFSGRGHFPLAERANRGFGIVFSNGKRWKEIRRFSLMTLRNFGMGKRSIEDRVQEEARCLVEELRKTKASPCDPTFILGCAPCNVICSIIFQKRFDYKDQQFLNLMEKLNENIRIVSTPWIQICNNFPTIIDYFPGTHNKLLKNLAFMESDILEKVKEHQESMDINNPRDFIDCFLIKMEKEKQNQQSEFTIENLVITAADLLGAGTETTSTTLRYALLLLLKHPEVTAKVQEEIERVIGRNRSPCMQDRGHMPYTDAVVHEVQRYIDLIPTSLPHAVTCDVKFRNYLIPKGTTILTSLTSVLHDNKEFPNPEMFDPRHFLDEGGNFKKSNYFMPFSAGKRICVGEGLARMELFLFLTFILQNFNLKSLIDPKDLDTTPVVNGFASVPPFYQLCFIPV
Chain of Solute carrier organic anion transporter family member 1B1 (Q9Y6L6 whole entry): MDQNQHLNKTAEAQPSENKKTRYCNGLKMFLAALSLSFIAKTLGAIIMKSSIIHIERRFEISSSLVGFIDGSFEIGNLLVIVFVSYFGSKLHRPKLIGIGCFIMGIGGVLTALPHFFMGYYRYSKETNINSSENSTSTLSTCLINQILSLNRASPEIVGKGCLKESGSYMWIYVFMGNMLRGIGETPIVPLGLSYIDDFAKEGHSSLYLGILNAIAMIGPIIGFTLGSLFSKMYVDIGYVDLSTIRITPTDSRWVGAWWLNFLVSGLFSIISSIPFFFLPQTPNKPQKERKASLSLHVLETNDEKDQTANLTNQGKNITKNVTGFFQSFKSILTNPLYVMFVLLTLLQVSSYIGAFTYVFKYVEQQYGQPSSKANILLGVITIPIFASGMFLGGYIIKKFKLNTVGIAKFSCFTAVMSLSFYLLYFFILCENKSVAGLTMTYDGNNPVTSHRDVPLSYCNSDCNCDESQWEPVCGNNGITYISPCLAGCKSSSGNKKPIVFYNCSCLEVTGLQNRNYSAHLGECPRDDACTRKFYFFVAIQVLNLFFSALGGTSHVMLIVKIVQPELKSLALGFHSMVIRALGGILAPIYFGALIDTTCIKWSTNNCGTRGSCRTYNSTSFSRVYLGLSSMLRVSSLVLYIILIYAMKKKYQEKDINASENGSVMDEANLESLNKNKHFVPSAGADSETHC
Chain of BMP-2-inducible protein kinase (Q9NSY1 whole entry): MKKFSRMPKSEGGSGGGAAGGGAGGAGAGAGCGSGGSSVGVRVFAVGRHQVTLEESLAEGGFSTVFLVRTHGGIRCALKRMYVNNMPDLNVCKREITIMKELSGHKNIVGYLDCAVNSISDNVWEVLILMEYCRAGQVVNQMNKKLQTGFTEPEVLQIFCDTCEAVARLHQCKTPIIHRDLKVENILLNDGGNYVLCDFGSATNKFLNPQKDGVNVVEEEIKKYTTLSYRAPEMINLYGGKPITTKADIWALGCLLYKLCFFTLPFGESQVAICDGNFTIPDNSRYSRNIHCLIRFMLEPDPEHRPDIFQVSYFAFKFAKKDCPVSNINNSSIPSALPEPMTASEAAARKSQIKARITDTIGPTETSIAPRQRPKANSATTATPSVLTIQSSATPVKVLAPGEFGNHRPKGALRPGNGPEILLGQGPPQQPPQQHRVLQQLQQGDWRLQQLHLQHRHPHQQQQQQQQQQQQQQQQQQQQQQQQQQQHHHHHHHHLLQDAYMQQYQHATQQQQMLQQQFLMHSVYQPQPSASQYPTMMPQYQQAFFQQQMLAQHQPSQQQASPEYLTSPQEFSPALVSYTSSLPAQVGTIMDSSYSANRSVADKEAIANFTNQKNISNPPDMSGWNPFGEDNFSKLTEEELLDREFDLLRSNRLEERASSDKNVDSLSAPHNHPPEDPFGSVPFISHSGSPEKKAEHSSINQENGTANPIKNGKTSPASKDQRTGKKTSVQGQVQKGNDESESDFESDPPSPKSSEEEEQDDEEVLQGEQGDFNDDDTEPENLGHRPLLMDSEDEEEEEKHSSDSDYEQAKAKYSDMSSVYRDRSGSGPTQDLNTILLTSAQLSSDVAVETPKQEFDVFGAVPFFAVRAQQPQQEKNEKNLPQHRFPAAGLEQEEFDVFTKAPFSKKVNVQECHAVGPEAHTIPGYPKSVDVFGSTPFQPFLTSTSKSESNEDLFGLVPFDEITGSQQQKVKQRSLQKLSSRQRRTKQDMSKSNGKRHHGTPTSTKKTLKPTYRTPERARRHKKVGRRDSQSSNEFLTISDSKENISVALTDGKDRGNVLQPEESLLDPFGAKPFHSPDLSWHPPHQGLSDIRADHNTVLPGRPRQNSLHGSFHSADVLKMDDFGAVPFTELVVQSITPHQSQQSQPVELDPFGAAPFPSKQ
Chain of AP2-associated protein kinase 1 (Q2M2I8 whole entry): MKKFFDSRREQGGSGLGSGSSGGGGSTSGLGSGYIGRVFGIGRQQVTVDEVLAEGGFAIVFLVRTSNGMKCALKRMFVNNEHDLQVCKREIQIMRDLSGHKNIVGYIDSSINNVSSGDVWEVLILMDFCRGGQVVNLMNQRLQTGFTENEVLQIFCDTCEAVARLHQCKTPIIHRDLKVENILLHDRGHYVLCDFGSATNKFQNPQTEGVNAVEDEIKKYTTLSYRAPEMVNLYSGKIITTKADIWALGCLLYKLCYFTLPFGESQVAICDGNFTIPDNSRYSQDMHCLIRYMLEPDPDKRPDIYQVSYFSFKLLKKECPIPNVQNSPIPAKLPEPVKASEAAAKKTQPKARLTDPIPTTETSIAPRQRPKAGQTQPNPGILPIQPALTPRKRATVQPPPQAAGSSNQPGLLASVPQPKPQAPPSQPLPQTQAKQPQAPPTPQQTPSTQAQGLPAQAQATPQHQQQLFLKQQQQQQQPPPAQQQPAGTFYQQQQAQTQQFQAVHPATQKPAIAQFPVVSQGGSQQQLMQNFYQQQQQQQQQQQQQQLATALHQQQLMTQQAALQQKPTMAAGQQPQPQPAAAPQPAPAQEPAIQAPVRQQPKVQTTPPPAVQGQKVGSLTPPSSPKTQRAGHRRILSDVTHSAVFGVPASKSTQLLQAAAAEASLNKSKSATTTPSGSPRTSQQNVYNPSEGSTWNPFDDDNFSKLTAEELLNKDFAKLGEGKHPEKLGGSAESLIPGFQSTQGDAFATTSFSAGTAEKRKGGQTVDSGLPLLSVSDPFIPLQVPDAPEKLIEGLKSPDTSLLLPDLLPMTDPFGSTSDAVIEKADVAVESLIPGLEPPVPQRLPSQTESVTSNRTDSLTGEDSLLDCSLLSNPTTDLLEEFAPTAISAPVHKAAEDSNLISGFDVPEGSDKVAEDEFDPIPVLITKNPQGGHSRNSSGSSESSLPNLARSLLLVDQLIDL
Chain of Broad substrate specificity ATP-binding cassette transporter ABCG2 (Q9UNQ0 whole entry): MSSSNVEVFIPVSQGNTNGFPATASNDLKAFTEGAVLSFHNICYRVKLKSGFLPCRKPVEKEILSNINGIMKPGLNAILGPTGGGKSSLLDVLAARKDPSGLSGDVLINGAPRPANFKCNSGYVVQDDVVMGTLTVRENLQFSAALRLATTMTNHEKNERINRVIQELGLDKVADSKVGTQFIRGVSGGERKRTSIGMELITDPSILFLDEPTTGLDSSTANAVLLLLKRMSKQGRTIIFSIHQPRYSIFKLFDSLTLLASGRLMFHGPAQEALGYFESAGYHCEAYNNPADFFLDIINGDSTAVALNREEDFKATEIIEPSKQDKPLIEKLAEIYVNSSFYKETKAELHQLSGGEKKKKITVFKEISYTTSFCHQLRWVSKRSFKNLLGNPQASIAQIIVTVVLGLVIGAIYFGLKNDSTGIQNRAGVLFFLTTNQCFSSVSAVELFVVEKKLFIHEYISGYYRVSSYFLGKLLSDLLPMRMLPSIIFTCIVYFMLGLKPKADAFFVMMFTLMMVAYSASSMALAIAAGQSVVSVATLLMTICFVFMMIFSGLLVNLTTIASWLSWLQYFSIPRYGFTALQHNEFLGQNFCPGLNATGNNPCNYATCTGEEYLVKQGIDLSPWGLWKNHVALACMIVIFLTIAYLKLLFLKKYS

Kp at 5.75 h [1]: 23 | Kp at 5.75 h [2]: 43 | Tmax [3]: 1.3 h | Tmax [4]: 4 h | pIC50 [5]: 8.70 | pIC50 (Cytochrome P450 3A4 [6]): < 4.70 | remaining at 10 min, 0.5 µM [7]: 86% | Papp at 4 h [8]: 60 ×10⁻⁶ cm/s | Papp B→A at 2 h, 3 µM [9]: 13.8 ×10⁻⁶ cm/s | fraction unbound at 5 h, 10 µM [11]: 0.053 | fraction unbound at 5 h, 10 µM [12]: 0.04 | fraction unbound at 4 h, 1 µM [13]: 0.007 | half-life [14]: > 2 h | pIC50 (Cytochrome P450 2C19): < 4.70 | pIC50 (Cytochrome P450 3A4 [15]): < 4.70 | pIC50 [16]: < 4.52 | pIC50 [17]: < 4.52 | pIC50 [18]: < 4.52 | pIC50 [19]: 5.27 | inhibition (Homo sapiens): 61% | Kp at 5.5 h [23]: 13 | Kp at 5.5 h [24]: 8 | concentration at 5.25 h [28]: 16.1 µM | concentration at 5.25 h [29]: 32.6 µM | Kp at 5.25 h [30]: 21 | AUC(0-inf) [31]: 1180 ng·h/mL | AUC(0-inf) [32]: 880 ng·h/mL | AUC(0-inf) [33]: 1210 ng·h/mL | AUC(0-inf) [34]: 270 ng·h/mL | half-life [35]: 44.2 h | half-life [36]: 5.7 h | MRT [37]: 63.8 h | MRT [38]: 11.6 h | clearance [39]: 28.5 mL/min/kg | clearance [40]: 28.5 mL/min/kg | Vd [41]: 19 L/kg | Vd [42]: 11.8 L/kg | pIC50 [43]: 5.72 | solubility [44]: 700 µg/mL (≈ 1820 µM) | solubility [45]: > 50000 µg/mL | pIC50 (Cytochrome P450 3A4 [46]): < 4.40
Structure (SMILES): CC(C)C[C@](C)(N)COc1ccc(-c2ccnc(C(F)F)c2)nc1C(F)F [PILAVAPADIN]
Activity (Rattus norvegicus [10]): >60% | Activity (Rattus norvegicus [20]): 25% | Activity (Rattus norvegicus [21]): 20% | Efficacy (Rattus norvegicus [22]): 25% | Efficacy (Rattus norvegicus [25]): 20% | Efficacy (Rattus norvegicus [26]): 20% | Efficacy (Rattus norvegicus [27]): 63%

From ChEMBL document CHEMBL5046296 (J Med Chem, 2022)
